Patent US5610185A, “Method for the treatment of hyperproliferative epithelial skin diseases by topical application of hydroxylated aromatic protein cross-linking compounds” (The United States of America as represented by the …, priority 1995, dated 1997)
Entries after “also recorded” stand apart in the source; their conditions may differ.

Assays:
[1] = test system: A431 human epidermoid carcinoma cells; assay: Growth inhibition (cell count), A431 cells; assay type: cell-based; settings: 75 μM MC, 3 days
Method: FIG. 5. Cross-linked Protein Production vs Growth Inhibition in A431 ([…]) Cells. Cell growth is represented by black circles and crosslinked protein production by white circles. Results are ±SD (n=3) of one experiment, representative of three.
Cells were seeded at low density and were treated with MC for 3 days. Cells were then counted and increase in cell number was compared to untreated controls, or cells were processed for cross-linked protein (FIG. 5).

[2] = test system: SP-1 cell tumors grafted on athymic nude mice; assay: Grafted SP-1 cell tumor formation in nude mice; assay type: in vivo, mouse; settings: topical MC, 1 mM and 100 mM; twice weekly for two weeks or 5 days each week for three weeks
Method: FIGS. 10A and 10B. […] Numbers above bars denote the number of animals with tumors/the number of animals in the group. In panel A, MC was applied twice weekly for two weeks. In panel B, MC was applied on 5 days each week for three weeks.
Skin grafting was performed on athymic nude mice using 0.5×10^6 SP-1 cells with 8×10^6 newborn SENCAR mouse dermal fibroblasts as described (Strickland et al., Carcinogenesis, 14, 205, 1993). Domes (plastic covers placed over the site of skin grafting) were removed one week after grafting, and after a further week, topical application of MC commenced. The agent was applied in 25 ul 90% acetone, 10% DMSO vehicle. Weekly, tumor measurements were recorded up to 5 weeks after grafting.
Grafting was performed as described above. Tumors were measured using calipers at the termination of the experiment and tumors were fixed and sections were taken to confirm the tumor phenotype by microscopy.

[3] = test system: normal human epidermal keratinocytes from foreskin; assay: Cross-linking in primary normal human epidermal keratinocytes; assay type: cell-based; settings: Keratinocyte, read-out: concentration for response in cross-linking
Excerpt: The increased sensitivity of mouse primary keratinocytes for the cross-linking effect is not related to the normal phenotype. […] Hydroxylated aromatic protein crosslinking compounds induce the cross-linking of cell proteins into cornified envelope-like structures, causing cell death by a non-biological mechanism which emulates the normal differentiation program of epidermal keratinocytes. In addition to their growth inhibitory properties, the unique protein cross-linking ability of the class of compounds described in the instant invention proffers a new mechanism for the topical treatment of hyperproliferative diseases of the skin.

Question: Which “inhibition of cell growth” value [1] does the source give for `COC(=O)C=Cc1cc(O)ccc1O` [MC, methyl 2,5-dihydroxycinnamate] here?
Answer: The value was “inhibited cell growth significantly”.

Question: What about the “growth / formation of grafted SP-1 tumors” value [2] of the same compound?
Answer: The value was “inhibited the growth of tumors; also recorded: inhibits Grafted SP-1 cell Tumor Formation; also recorded: inhibit tumor formation”.

Question: And the minimal effective concentration [3]?
Answer: The minimal effective concentration was at least 250 µM.
